# pIC50: −log10 of the molar value.
# How the values were obtained:
# [1] = molecular target: T1, human L-Selectin-IgG-chimera (Homo sapiens, UniProt P14151); assay: Sialyl Lewis X Tyrosine Sulfate Assay (sLex TSA), L-selectin; assay type: binding; conditions: sLexTSA
# T1 construct: fused on or other part: human IgG Fc part, captured on the plate by goat anti human Fc antibody; a tag, no second protein
# T1 sequence (P14151 39-318 limits assumed): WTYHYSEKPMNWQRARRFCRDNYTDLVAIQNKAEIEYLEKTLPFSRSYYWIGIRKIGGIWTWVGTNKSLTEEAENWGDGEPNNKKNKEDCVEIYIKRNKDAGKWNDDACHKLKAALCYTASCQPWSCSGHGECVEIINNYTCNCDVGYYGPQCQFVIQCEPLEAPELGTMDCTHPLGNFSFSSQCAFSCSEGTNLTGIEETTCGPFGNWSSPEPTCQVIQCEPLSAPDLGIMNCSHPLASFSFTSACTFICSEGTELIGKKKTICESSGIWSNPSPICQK
# Protocol: (§1) Sialyl Lewis^X Tyrosine Sulfate Assay (sLe^x TSA):
# (§2) Compounds of the present invention are assayed on a molecular level for their ability to inhibit the binding of P-, L-, or E-selectin chimeric molecules to sLe^x and tyrosinesulfate residues linked to a polymeric matrix as a PSGL-1 substitute. Selected IC50-values are determined.
# (§3) Microtiter plates are coated overnight in carbonate buffer pH9.6 with goat anti human Fc mAB (10 μg/ml). After washing in assay buffer (25 mM 4-(2-hydroxyethyl)-1-piperazineethanesulfonic acid (HEPES), 150 mM NaCl, 1 mM CaCl2 pH7.4) and blocking (3% bovine serum albumin (BSA) in assay buffer) plates are incubated for 2 h at 37° C. with human P-Selectin-IgG-chimera (0.61 nM respectively 150 ng/mL) or human L-Selectin-IgG-chimera (0.61 nM respectively 89 ng/mL) or human E-Selectin-IgG-chimera (0.61 nM respectively 131 ng/mL). 5 μl of sLe^x-tyrosine sulfate polyacrylamide (1 mg/ml) carrying 15% sLe^x, 10% Tyrosine-sulfate and 5% biotin is complexed with 20 μl Streptavidin-Peroxidase solution (1 mg/ml) and 25 μl assay buffer without CaCl2. For use in the assay, the ligand complex is diluted 1:10000 in assay buffer and further diluted 1:1 with varying amounts of compounds in assay buffer incl. 2% DMSO. This mixture is added to the wells precoated with E- or P-selectin. After incubation for 2 h at 37° C., wells are washed for six times with in assay buffer incl. 0.005% Polyoxyethylenesorbitan monolaurate (TWEEN 20), developed for 10-15 min with 20 μl 3,3′,5,5′-tetramethylbenzidine (TMB)/H2O2 substrate solution and stopped with 20 μl 1M H2SO4. Bound sLe^x-Tyrosine sulfate ligand complex is determined by measuring optical density at 450 nm vs. 620 nm in a Fusion alpha-FP reader (sold from Packard Bioscience, Dreieich, Germany).
# [2] = system: human E-selectin-IgG chimera; assay: Flow chamber assay, cell adhesion and rolling under flow conditions, E-selectin; assay type: cell-based; conditions: normalized ratio of %-inhibition of compound divided by %-inhibition of bimosiamose; 125 μM compound; HL-60 cells; flow shear 1 dyne/cm^2
# Protocol: (§4) Flow Chamber Assay/Cell Adhesion and Rolling Under Flow Conditions
# (§5) To assess the capability of compounds to inhibit cell binding under dynamic conditions resembling the flow in a blood vessel, flow chamber assays addressing/testing binding of HL-60 cells/various cell lines to P-selectin, L-selectin and E-selectin chimeric molecules are performed.
# (§6) Cell attachment under flow conditions is determined using a parallel flow chamber system. A 35 mm polystyrene culture dish is coated for 1 hour at room temperature with coating buffer (50 mM tris-(hydroxymethyl)aminomethane buffer (Tris), 150 mM NaCl, 2 mM CaCl2; pH 7.4) containing human E- or P-selectin-IgG chimera at concentrations of 2.5 μg/ml or 10 μg/ml, respectively. After removal of the coating solution non specific binding sites are blocked for an additional hour with 1% BSA in coating buffer at room temperature. After washing with assay buffer (“Roswell Park Memorial Institute 1640” (RPMI 1640)+10 mM HEPES) the dish is fitted into a parallel plate laminar flow chamber (sold from Glycotech, Rockville, Md.) and mounted on an inverted phase-contrast microscope (sold from Olympus, Hamburg, Germany) equipped with a CCD camera (JVC) that is connected to a PC. Employing a peristaltic pump (sold from Ismatec, Wertheim-Mondfeld, Germany) the re-circulating system is equilibrated with assay buffer containing 125 μM compound or vehicle control (DMSO). Cells (1 million/ml) are added to the chamber and allowed to distribute for 2 minutes at a high flow rate. The flow rate is then decreased resulting in a calculated flow shear of 1 dyne/cm^2. Video sequences of 10 low power fields are digitally recorded after 5 minutes continuous flow. The percentage of inhibition is calculated from the mean number of cells per field that attached to the coated dish surface in the presence versus absence of compound […].
# [3] = system: human P-selectin-IgG chimera; assay: Flow chamber assay, cell adhesion and rolling under flow conditions, P-selectin; assay type: cell-based; conditions: normalized ratio of %-inhibition of compound divided by %-inhibition of bimosiamose; 125 μM compound; HL-60 cells; flow shear 1 dyne/cm^2
# Protocol: as §4, §5, §6
# [4] = molecular target: T2, human P-Selectin-IgG-chimera (Homo sapiens, UniProt P16109); assay: Sialyl Lewis X Tyrosine Sulfate Assay (sLex TSA), P-selectin; assay type: binding; conditions: sLexTSA
# T2 sequence (P16109 42-771 limits assumed): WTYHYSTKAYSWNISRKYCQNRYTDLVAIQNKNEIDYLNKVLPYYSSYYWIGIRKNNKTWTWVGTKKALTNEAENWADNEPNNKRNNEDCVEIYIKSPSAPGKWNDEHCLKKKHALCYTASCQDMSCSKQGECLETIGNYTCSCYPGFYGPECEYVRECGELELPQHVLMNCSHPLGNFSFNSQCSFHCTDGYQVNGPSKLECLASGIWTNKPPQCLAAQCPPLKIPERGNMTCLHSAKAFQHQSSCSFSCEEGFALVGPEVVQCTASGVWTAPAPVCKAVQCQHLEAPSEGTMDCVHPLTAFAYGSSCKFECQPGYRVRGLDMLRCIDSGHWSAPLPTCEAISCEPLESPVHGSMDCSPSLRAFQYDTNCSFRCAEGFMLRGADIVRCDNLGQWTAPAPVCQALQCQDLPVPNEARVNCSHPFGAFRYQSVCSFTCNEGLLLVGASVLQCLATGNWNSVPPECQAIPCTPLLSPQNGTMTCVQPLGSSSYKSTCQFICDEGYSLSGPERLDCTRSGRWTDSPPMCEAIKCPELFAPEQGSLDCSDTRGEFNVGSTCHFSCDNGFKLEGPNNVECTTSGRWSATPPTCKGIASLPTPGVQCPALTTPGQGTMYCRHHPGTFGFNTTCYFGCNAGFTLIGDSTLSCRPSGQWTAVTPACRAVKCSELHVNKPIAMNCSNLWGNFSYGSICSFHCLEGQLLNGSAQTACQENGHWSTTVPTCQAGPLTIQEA
# Protocol: as §1, §2, §3
pIC50 [1],pIC50 [4],Structure (SMILES),E-Selectin [Ratio] [2],P-Selectin [Ratio] [3]
< 3.30,–,"O=C(O)Cc1cccc(-c2cc(CCCCCCc3ccc(O[C@H]4O[C@H](CO)[C@@H](O)[C@H](O)[C@@H]4O)c(-c4cccc(CC(=O)O)c4)c3)ccc2O[C@H]2O[C@H](CO)[C@@H](O)[C@H](O)[C@@H]2O)c1 [Bimosiamose, bimosiamose, reference compound]",–,–
–,–,"Cc1oc(-c2ccc(NC(=O)Cc3ccc(O)cc3O)cc2)cc1C(=O)O [Compound 29, 5-{4-[2-(2,4-Dihydroxy-phenyl)-acetylamino]-phenyl}-2-methyl-furan-3-carboxylic acid]",1.31 Ratio,0.74 Ratio
–,–,"Cc1oc(-c2ccc(NC(=O)Cc3cc(O)cc(O)c3)cc2)cc1C(=O)O [Compound 31, 5-{4-[2-(3,5-Dihydroxy-phenyl)-acetylamino]-phenyl}-2-methyl-furan-3-carboxylic acid]",1.16 Ratio,0.60 Ratio
–,–,"COC(=O)Cc1ccc(-c2ccccc2NC(=O)c2cncc(-c3ccc(O)cc3O)c2)s1 [Compound 74, [5-(2-{[5-(2,4-Dihydroxy-phenyl)-pyridine-3-carbonyl]-amino}-phenyl)-thiophen-2-yl]-acetic acid methyl ester]",0.68 Ratio,1.02 Ratio
–,–,"O=C(O)c1cccc(NC(=O)c2cccc(-c3ccc(O)cc3O)c2)c1 [Compound 79, 3-[(2′,4′-Dihydroxy-biphenyl-3-carbonyl)-amino]-benzoic acid]",0.96 Ratio,1.19 Ratio
–,–,"O=C(O)Cc1ccc(-c2ccccc2NC(=O)c2cccc(-c3cc(O)cc(O)c3)c2)s1 [Compound 82, (5-{2-[(3′,5′-Dihydroxy-biphenyl-3-carbonyl)-amino]-phenyl}-thiophen-2-yl)-acetic acid]",1.35 Ratio,2.11 Ratio
–,–,"O=C(Nc1ccccc1-c1ccc(C(=O)O)s1)c1cccc(-c2cc(O)cc(O)c2)c1 [Compound 85, 5-{2-[(3′,5′-Dihydroxy-biphenyl-3-carbonyl)-amino]-phenyl}-thiophene-2-carboxylic acid]",1.20 Ratio,1.90 Ratio
–,–,"O=C(Nc1ccccc1-c1cccs1)c1cccc(-c2ccc(O)cc2O)c1 [Compound 87, 2′,4′-Dihydroxy-biphenyl-3-carboxylic acid (2-thiophen-2-yl-phenyl)-amide]",1.24 Ratio,1.05 Ratio
–,–,"COc1ccc(-c2cccc(C(=O)Nc3cccc(-c4ccc(CC(=O)O)s4)c3)c2)c(OC)c1 [Compound 89, (5-{3-[(2′,4′-Dimethoxy-biphenyl-3-carbonyl)-amino]-phenyl}-thiophen-2-yl)-acetic acid]",1.27 Ratio,1.41 Ratio
4.41,4.72,"O=C(O)Cc1ccc(-c2cccc(NC(=O)c3cccc(-c4ccc(O)cc4O)c3)c2)s1 [Compound 90, (5-{3-[(2′,4′-Dihydroxy-biphenyl-3-carbonyl)-amino]-phenyl}-thiophen-2-yl)-acetic acid]",–,–
–,–,"Cc1oc(-c2ccc(NC(=O)c3cccc(-c4ccc(O)cc4O)c3)nc2)cc1C(=O)O [Compound 93, 5-{6-[(2′,4′-Dihydroxy-biphenyl-3-carbonyl)-amino]-pyridin-3-yl}-2-methyl-furan-3-carboxylic acid]",0.86 Ratio,1.13 Ratio
–,–,"Cc1oc(-c2ccc(NC(=O)c3cccc(-c4ccc(O)cc4O)c3)cc2)cc1C(=O)O [Compound 96, 5-{4-[(2′,4′-Dihydroxy-biphenyl-3-carbonyl)-amino]-phenyl}-2-methyl-furan-3-carboxylic acid]",1.13 Ratio,1.02 Ratio
–,–,"O=C(Nc1cccc(C(F)(F)F)c1)c1cccc(-c2ccc(O)cc2O)c1 [Compound 98, 2′,4′-Dihydroxy-biphenyl-3-carboxylic acid (3-trifluoromethyl-phenyl)-amide]",1.26 Ratio,1.00 Ratio

# Source: patent US20090030015A1, “NOVEL MULTI-CYCLIC COMPOUNDS” (REVOTAR BIOPHARMACEUTICALS AG, priority 2005, published 2009)
